Laboratory results from patent US7875638B2, “Synthesis of epothilones, intermediates thereto, analogues and uses thereof” (Sloan-Kettering Institute for Cancer Research, priority 2002, dated 2011).
Values after ≈ are worked out from the molar mass of the structure shown. Values joined by “and” are separate entries in the source; they are usually repeats but may differ in a detail not shown here. Equal values may be shown once. “Also recorded” adds a separate entry of the source. Read-outs that look alike come from different tables or passages of the source.

Assays:
CCRF-CEM/Taxol = assay type: cell-based, human; settings: for IC50: Homo sapiens, CCRF-CEM
[1] = Octanol-water partition (POW) number by HPLC; assay type: physicochemical; settings: HPLC estimate, pH 7.4 buffer; read-out: Lipophilicity octanol/water partition (POW)
Procedure: Determination of partition of octanol-water (POW) number. An HPLC method is used to estimate octanol-water partition. An Agilent 1100 HPLC system is used with an eclipse XDB C18 column 4.6×250 mm with a mobile phase of 60% acetonitrile/40% 25 mM potassium phosphate buffer at pH 7.4 with a flow rate of 0.8 ml per min. and the eluent is monitored at 250 nm. The standards used are benzyl alcohol, acetophenone, benzophenone, naphthalene, diphenyl ether and dibenzyl with known POW of […] respectively. Sodium dichromate is used to evaluate time zero which is 2.5 min and the retention times for the standards are 3.9, 5.4, 10.6, 14, 18.7 and 19.8 min, respectively. The k value is calculated by the formula of k=(trt−t0)/t0. Linear regression of log k vs. log POW gives a straight line with r^2=0.966. This graph is used to evaluate the POW value of the epothilone analogs.

CCRF-CEM [2] = settings: for Potency compared with EpoB (51): sensitive and resistant cell lines
Procedure: (§1) Cytotoxicity Assays. In preparation for in vitro cytotoxicity assays, cells were cultured at an initial density 2-5×10^4 cells per milliliter. […] For both methods, the absorbance of each well was measured with a microplate reader (Power Wave XS, Bio-Tek, Winooski, Vt.).
(§2) A typical experiment involves culturing cells (e.g., CCRF-CEM) at an initial density of 2-5×10^4 cells per ml. […] For cells that were grown in suspension (such as CCRF-CEM and its sublines), cytotoxicitiy is measured by using the 2,-3-bis(2-methoxy-4-nitro-5-sulfophenyl)-5 carboxanilide)-2H terazodium hydroxide (XTT)-microculture tetrazonium method in duplicate in 96-well microtiter plates. For both methods, the absorbance of each well is measured with a microplate reader (EL-340, Bio-Tek, Burlington, Vt.). Each run entails six or seven concentrations of the tested drugs. Dose-effect relationship data are analyzed with the median-effect plot.
(§3) Cytotoxicity Assays: In preparation for in vitro cytotoxicity assays, cells were cultured at an initial density 2-5×10^4 cells per milliliter. […] For both methods, the absorbance of each well was measured with a microplate reader (Power Wave XS, Bio-Tek, Winooski, Vt.).

[3] = for Slower drug degradation in murine plasma as compared to dEpoB (1), factor: exposure to murine plasma
Procedure: (§4) Stability of epothilones in mouse and in human liver S9 fraction. The stability study was carried out with a fully automated HPLC system which consisted of a Prospekt-2 (Spark Holland, Netherlands) sample preparation system and an Agilent 1100 HPLC system. Briefly, the Prospekt 2 picked up a C8 extraction cartridge and washed it with acetonitrile and water. The Agilent autosampler, set at 37° C., picked up 20 μl of the sample, loaded it onto the cartridge, washed it with water, then the Prospekt-2 diverted the mobile phase stream through the extraction cartridge onto the analytical column, Reliance Stable Bond C8 4×80 mm with guard column (MacMod, Chadds Ford, Pa.) and the eluent was monitored at 250 nm. […] Sample preparation involved the addition of equal volumes of plasma to PBS for a total volume of 300-400 μl, filtered, and the addition of 0.5-2 μl of the substrate (20 mM) to achieve about 30-50 mAU at 250 nm in the HPLC analysis. For pooled human liver microsome S9 fraction (Xeno Tech, Lenex, Kans.), 20 μl (400 μg) or S9 fraction was mixed with 280 μl of PBS then proceeded as above. The sampling period was controlled by the autosampler and peak area data were collected to compare the rate of disappearance of the parent compound.
(§5) Stability of epothilones in mouse and in human liver S9 fraction: The stability study was carried out with a fully automated HPLC system which consisted of a Prospekt-2 (Spark Holland, Netherlands) sample preparation system and an Agilent 1100 HPLC system. Briefly, the Prospekt 2 picked up a C8 extraction cartridge and washed it with acetonitrile and water. The Agilent autosampler, set at 37° C., picked up 20 μl of the sample, loaded it onto the cartridge, washed it with water, then the Prospekt-2 diverted the mobile phase stream through the extraction cartridge onto the analytical column, Reliance Stable Bond C8 4×80 mm with guard column (MacMod, Chadds Ford, Pa.) and the eluent was monitored at 250 nm. […] Sample preparation involves the addition of equal volumes of plasma to PBS for a total volume of 400 μl, filtered, and the addition of 0.5-2 μl of the substrate (20 mM) to achieve about 30-50 mAU at 250 nm in the HPLC analysis. For pooled human liver microsome S9 fraction (Xeno Tech, Lenex, Kans.), 20 μl (400 μg) or S9 fraction was mixed with 280 μl of PBS then proceeds as above. The sampling period was controlled by the autosampler and peak area data were collected to compare the rate of disappearance of the parent compound.

[4] = system: human xenografts in nude mice, such as MX-1; parameters: Relative therapuetic index at MTD: key to the marks not given beside the values; settings: for Relative therapuetic index at MTD: graded at maximal tolerated dose
in vitro [5] = settings: mouse
Procedure: as §4, §5

in vitro [6] = settings: human
Procedure: as §4, §5

Solubility in water = settings: for solubility: water
[7] = preliminary metabolic degradation studies
[8] = system: human mammary carcinoma MX-1 xenograft
[9] = system: human mammary carcinoma MX-1 xenograft; assay: MX-1 xenograft in nude mice
CCRF-CEM [10] = settings: human, CCRF-CEM leukemic cells, 72 h
Procedure: as §1, §2, §3

[11] = system: human T-cell lymphoblastic leukemia CCRF-CEM/Taxol xenograft; assay: CCRF-CEM/Taxol xenograft in nude mice; assay type: in vivo
[12] = system: human colon carcinoma HCT-116 xenograft; assay: HCT-116 xenograft in nude mice
[13] = system: human colon carcinoma HCT-116 xenograft
[14] = XTT assay following 72 h inhibition, Table 1-3, read-out: IC50, C/Taxol
[15] = read-out: CCRF-CEM (IC50 (μM)), XTT assay following 72 h inhibition, Table 1-1
[16] = XTT assay following 72 h inhibition, Table 1-2, read-out: IC50 (μM), CCRF-CEM/Taxol
[17] = XTT assay following 72 h inhibition, Table 1-4, read-out: IC50, CCRF-CEM/Taxol
[18] = read-out: IC50, CCRF-CEM, XTT assay following 72 h inhibition, Table 1-4
[19] = 72 h, read-out: IC50, CCRF-CEM/Taxol

Procedure for A549/taxol cells: as §1

Compound: C/C(=C\c1csc(C)n1)[C@@H]1C/C=C(/C(F)(F)F)CCC[C@H](C)[C@H](O)[C@@H](C)C(=O)C(C)(C)[C@@H](O)CC(=O)O1 [Compound 2, 26-trifluoro-12,13-desoxyepothilone B]
- IC50 (CCRF-CEM/Taxol; [14]): 0.018 µM
- chromatographic logP [1]: 4.1
- IC50 (CCRF-CEM [2]; human): 0.0093 ± 0.0052 µM
- IC50 (CCRF-CEM [2]; read-out: IC50, CCRF-CEM(C), XTT assay following 72 h inhibition, Table 1-3): 0.0041 µM
- Slower drug degradation in murine plasma as compared to dEpoB (1), factor [3]: by a factor of seven
- Maximal b.w. % drop without death ([4]; mouse, in vivo): 22%
- Therapeutic dose regimen for Q2D 6 hr-iv infusion ([4]; mouse, in vivo, iv): 15 to 20 mg/kg
- half-life (in vitro [5]; plasma): 1.1 ± 0.117 h
- half-life (in vitro [6]; s9): 1.6 ± 0.4 h
- solubility (Solubility in water): 8 µg/mL (≈ 14.7 µM)

Compound: CC1=C/C[C@@H](/C(C)=C/c2csc(C)n2)OC(=O)C[C@H](O)C(C)(C)C(=O)[C@H](C)[C@@H](O)[C@@H](C)C\C=C\1 [Compound 6, epothilone 490, reference compound]
- IC50 (CCRF-CEM [2]; read-out: CCRF-CEM (IC50 (μM))): 0.02 µM

Compound: C/C(=C\c1csc(C)n1)[C@@H]1C/C=C(/C(F)(F)F)C/C=C/C[C@H](C)[C@H](O)[C@@H](C)C(=O)C(C)(C)[C@@H](O)CC(=O)O1 [Compound 19, 27-F3-[17]ddEpoB]
- IC50 (CCRF-CEM [2]; [15]): 0.068 µM
- Degradation on exposure to nude mouse plasma ([3]; preliminary metabolic degradation studies): remained mostly intact
- Degradation on exposure to human plasma [7]: remained mostly intact

Compound: C/C1=C/C[C@@H](/C(C)=C/c2csc(C)n2)OC(=O)C[C@H](O)C(C)(C)C(=O)[C@H](C)[C@@H](O)[C@@H](C)/C=C/C1 [Compound 28, trans-9,10-dehydro-12,13-desoxyepothilone B]
- IC50 (CCRF-CEM/Taxol; [16]): 0.0017 µM
- IC50 (CCRF-CEM/Taxol; [14]): 0.0012 µM
- IC50 (CCRF-CEM/Taxol; [17]): 0.0012 µM
- chromatographic logP [1]: 3.3
- IC50 in vitro (FIG. 94) (CCRF-CEM [2]): sub-nanomolar
- IC50 (CCRF-CEM [2]; XTT assay following 72 h inhibition, Table 1-2): 0.0014 µM
- IC50 (CCRF-CEM [2]; XTT assay following 72 h inhibition, Table 1-3): 0.0009 µM
- IC50 (CCRF-CEM [2]; XTT assay following 72 h inhibition, Table 1-4): 0.0009 µM
- Potency in direct comparison with dEpoB (1) (CCRF-CEM [2]; tumor cell lines of Table 1-2): nearly three times more potency
- Relative therapuetic index at MTD [4]: ++++
- Antitumor effect in human solid tumor xenograft models ([4]; mouse, in vivo): strongly suppressed tumor growth
- Dose accomplishing complete suppression of tumor in a variety of xenografts ([4]; mouse, in vivo): 3 mg/kg
- Efficacy compared with dEpoB ([4]; mouse, in vivo): three times more efficacious
- Maximal b.w. % drop without death ([4]; mouse, in vivo): 29%
- Therapeutic dose regimen for Q2D 6 hr-iv infusion ([4]; mouse, in vivo, iv): 3 to 4 mg/kg
- Enhancement of drug potency in xenograft experiments with MX-1 tumors [8]: ca. 10 fold
- half-life (in vitro [5]; mouse plasma): 1.4 ± 0.1 h
- half-life (in vitro [6]; pooled human liver S9 fraction): 4.9 ± 0.7 h
- Water solubility relative to other epothilones (Solubility in water): greatly increased water solubility
- solubility (Solubility in water): 27 µg/mL (≈ 55.1 µM)
- Therapeutic effect on MX-1 xenograft ([9]; mouse, in vivo): tumor disappearance
- IC50 (CCRF-CEM [10]): 0.9 ± 0.4 nM

Compound: C/C(=C\c1csc(C)n1)[C@@H]1C[C@@H]2O[C@]2(C)C/C=C/[C@H](C)[C@H](O)[C@@H](C)C(=O)C(C)(C)[C@@H](O)CC(=O)O1 [Compound 49, (E)-9,10-dehydroepothilone B]
- IC50 (CCRF-CEM/Taxol; [17]): 0.00042 µM
- Therapeutic effect on CCRF-CEM/Taxol xenograft ([11]; 0.6 mg/kg, Q3Dx5,x2): abolished tumor growth
- IC50 in vitro (FIG. 94) (CCRF-CEM [2]): sub-nanomolar
- IC50 (CCRF-CEM [2]; [18]): 0.00023 µM
- Potency compared with EpoB (51) (CCRF-CEM [2]): ~3 fold and 2-4 fold
- Antitumor effect in human solid tumor xenograft models ([4]; mouse, in vivo): strongly suppressed tumor growth
- Therapeutic effect on MX-1 xenograft ([9]; 0.4-0.6 mg/kg, every three days 9-11 times, 6 hour iv infusion): shrinkage and disappearance of the tumor
- Therapeutic effect on MX-1 xenograft ([9]; every other day for 8 doses): tumor growth suppression but no shrinkage of the tumor
- Body weight recovery, % of the control ([9]; every other day for 9 doses, second to eighth day): 76% to 82%
- Mice died of toxicity within three days after the sixth dosage ([12]; 0.6 mg/kg, Q2Wx6, 6 hour infusion): four out of four

Compound: C/C(=C\c1csc(C)n1)[C@@H]1C[C@H]2O[C@@]2(C)C/C=C/[C@H](C)[C@H](O)[C@@H](C)C(=O)C(C)(C)[C@@H](O)CC(=O)O1 [Compound 50]
- IC50 (CCRF-CEM/Taxol; [17]): 0.0802 µM
- IC50 (CCRF-CEM [2]; [18]): 0.0134 µM
- Potency compared with EpoB (51) (CCRF-CEM [2]): much lower activity
- Potency compared with EpoB (51) (CCRF-CEM [2]; listed as unnatural α-oxirane): virtually devoid of activity

Compound: C/C(=C\c1csc(C)n1)[C@@H]1C[C@@H]2O[C@]2(C)CCC[C@H](C)[C@H](O)[C@@H](C)C(=O)C(C)(C)[C@@H](O)CC(=O)O1 [Compound 51, Epothilone B, reference compound]
- IC50 (CCRF-CEM/Taxol; [19]): 0.0011 µM
- IC50 in vitro (FIG. 94) (CCRF-CEM [2]): sub-nanomolar
- IC50 (CCRF-CEM [2]; read-out: Cytotoxic Efficacy IC50, CCRF-CEM leukemic cells, range of two experiments, seven concentration points): 0.00053 ± 0.0002 µM
- IC50 (CCRF-CEM [2]; [18]): 0.00062 µM
- Therapeutic dose regimen for Q2D 6 hr-iv infusion ([4]; Q2D 6 hr-iv infusion): 0.6 to 0.8 mg/kg
- Relative therapuetic index at MTD [4]: +++
- Maximal b.w. % drop without death ([4]; nude mice): 15%
- half-life (in vitro [5]; plasma): 0.95 h
- half-life (in vitro [6]; s9): 15.8 h

Compound: C/C(=C\c1csc(C)n1)[C@@H]1C[C@H]2O[C@@]2(C)CCC[C@H](C)[C@H](O)[C@@H](C)C(=O)C(C)(C)[C@@H](O)CC(=O)O1 [Compound 52]
- IC50 (CCRF-CEM/Taxol; [19]): 0.151 µM
- IC50 (CCRF-CEM [2]; [18]): 0.083 µM
- Potency compared with EpoB (51) (CCRF-CEM [2]): much lower activity

Compound: C/C1=C/C[C@@H](/C(C)=C/c2csc(CO)n2)OC(=O)C[C@H](O)C(C)(C)C(=O)[C@H](C)[C@@H](O)[C@@H](C)/C=C/C1 [Compound 57, 9,10-dehydro-dEpoF]
- IC50 (CCRF-CEM/Taxol; [16]): 0.00073 µM
- IC50 in vitro (FIG. 94) (CCRF-CEM [2]): sub-nanomolar
- IC50 (CCRF-CEM [2]; read-out: IC50 (μM), CCRF-CEM, XTT assay following 72 h inhibition, Table 1-2): 0.00051 µM
- Slower drug degradation in murine plasma as compared to dEpoB (1), factor [3]: ca. 7
- Antitumor effect in human solid tumor xenograft models ([4]; mouse, in vivo): strongly suppressed tumor growth
- Water solubility relative to other epothilones (Solubility in water): greatly increased water solubility

Compound: C/C(=C\c1csc(CO)n1)C1C/C=C(/C(F)(F)F)C/C=C/[C@H](C)[C@H](O)[C@@H](C)C(=O)C(C)(C)[C@@H](O)CC(=O)O1 (some centres unmarked) [Compound 59, 26-trifluoro-9,10-dehydro-dEpoF]
- Water solubility relative to other epothilones (Solubility in water): greatly increased water solubility

Compound: CC(=O)O[C@H]1C(=O)[C@@]2(C)[C@H]([C@H](OC(=O)c3ccccc3)[C@]3(O)C[C@H](OC(=O)[C@H](O)[C@@H](NC(=O)c4ccccc4)c4ccccc4)C(C)=C1C3(C)C)[C@]1(OC(C)=O)CO[C@@H]1C[C@@H]2O [Paclitaxel, reference compound]
- Resistance of CCRF-CEM/Taxol subline (CCRF-CEM/Taxol): 44 fold
- Final tumor suppression on D34 ([11]; 20 mg/kg): 75.6%
- Therapeutic effect on CCRF-CEM/Taxol xenograft ([11]; 20 mg/kg, 6 hr-i.v. infusion, listed as Taxol): only partial suppression of tumor growth and failed to achieve tumor shrinkage; also recorded: tumor growth suppression but with little or no tumor shrinkage
- Tumor reappeared on day 10 after administration (mice) ([8]; 20 mg/kg): 2/7
- Tumor free after Q2Dx6 6 hr-iv. infusion (mice) ([8]; 20 mg/kg, 6 h): 7/7
- Mice relapsed on day 10 after suspension of treatment ([8]; 20 mg/kg, 240 h): 2/7
- Relapse, time after stopping treatment ([13]; 20 mg/kg): 1.1 months
- Cell kill ([13]; 96 h): 2.56 log
- Tumor suppression ([13]; 96 h): 99.7%
- Resistance of A549/taxol cells (A549/taxol cells): 44 fold
- Effect of oral administration on MX-1 xenografts ([9]; oral): did not affect the tumor
- Tumor relapse during follow-up to D200 ([12]; Fludelone 20 and 30 mg/kg, Taxol 20 mg/kg): tumor relapse occurred on D71, 75, 81 and 81; also recorded: relapses on D71, 75, 81, and 81
- Tumor disappearance (mice) ([12]; Q2Dx4, 6 hr-i.v. infusion for 3 cycles, F3-deH-dEpoB 20 and 30 mg/kg, Taxol 20 mg/kg): 4 out of 4

Compound: [17]ddEpoB [Compound 23, reference compound]
- IC50 (CCRF-CEM [2]; [15]): 0.04 µM
